Consider one molecule from US11944623B2, “Modulators of Kv3 channels to treat pain” (Autifony Therapeutics Limited, priority 2015, dated 2024).

The target in the assay is T1, human Kv3.1 channels (Homo sapiens, UniProt P48547).
T1 construct: expressed in transfected cells; host or cells: CHO/Gam/E1A-clone22 (CGE22) cells, transient BacMam transduction
T1 sequence (P48547 1-511): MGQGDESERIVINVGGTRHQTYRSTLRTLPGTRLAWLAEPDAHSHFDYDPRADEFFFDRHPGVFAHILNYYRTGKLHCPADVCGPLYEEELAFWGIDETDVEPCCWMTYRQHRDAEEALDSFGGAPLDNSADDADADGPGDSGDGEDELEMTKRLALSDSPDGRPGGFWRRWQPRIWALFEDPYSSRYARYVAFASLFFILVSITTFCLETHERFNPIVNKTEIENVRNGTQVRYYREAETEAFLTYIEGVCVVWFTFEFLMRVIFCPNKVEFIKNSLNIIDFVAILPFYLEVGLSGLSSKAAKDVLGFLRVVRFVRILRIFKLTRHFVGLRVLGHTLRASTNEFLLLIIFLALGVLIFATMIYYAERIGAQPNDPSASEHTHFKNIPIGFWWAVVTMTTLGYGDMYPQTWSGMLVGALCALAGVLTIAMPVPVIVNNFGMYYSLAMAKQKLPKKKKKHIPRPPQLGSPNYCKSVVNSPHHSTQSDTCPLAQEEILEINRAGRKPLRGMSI
The assay can be described thus: hKv3.1 IonWorks Quattro whole-cell current potentiation assay. In kind it is cell-based. The settings on record: potency as indicated by an EC50 value. From the text: The ability of the compounds of the invention to modulate the voltage-gated potassium channel subtypes Kv3.3/Kv3.2/Kv3.1 may be determined using the following assay. Analogous methods may be used to investigate the ability of the compounds of the invention to modulate other channel subtypes.
To assess compound effects on human Kv3.1 channels (hKv3.1), CHO/Gam/E1A-clone22 alias CGE22 cells were transduced using a hKv3.1 BacMam reagent. This cell line was designed to be an improved CHO-K1-based host for enhanced recombinant protein expression as compared to wild type CHO-K1. The cell line was generated following the transduction of CHO-K1 cells with a BacMam virus expressing the Adenovirus-Gam1 protein and selection with Geneticin-G418, to generate a stable cell line, CHO/Gam-A3. CHO/Gam-A3 cells were transfected with pCDNA3-E1A-Hygro, followed by hygromycin-B selection and FACS sorting to obtain single-cell clones. […]
Experiments were conducted at room temperature using IonWorks Quattro™ planar array electrophysiology technology (Molecular Devices Corp.) with PatchPlate™ PPC. […] Planar electrode hole resistances (Rp) were determined by applying a 10 mV voltage step across each well. […]
Test pulses protocol may be performed in the absence (pre-read) and presence (post-read) of the test compound. […]
For orientation: In patch-clamp work, channel activity is measured electrically.

With `Cc1ccc(Oc2ccc(-n3c(C)n[nH]c3=O)cn2)c2c1OCC21CC1` [Compound 3, 5-methyl-4-{6-[(7-methylspiro[1-benzofuran-3,1′-cyclopropan]-4-yl)oxy]pyridin-3-yl}-2,4-dihydro-3H-1,2,4-triazol-3-one], the “activity between modulation of Kv3.1 and Kv3.2 channels” value is on record as “comparable activity”.
